Source: ChEMBL document CHEMBL4270663, “6-Benzhydryl-4-amino-quinolin-2-ones as Potent Cannabinoid Type 1 (CB1) Receptor Inverse Agonists and Chemical Modifications for Peripheral Selectivity” (J Med Chem, 2018)
pEC50, pIC50: −log10 of the molar value. Active and inactive are the calls of the source. The rule behind the calls is not given here.

Legend:
[1] = target: Cannabinoid receptor 2 (Homo sapiens, UniProt P34972); assay: Inverse agonist activity at human CB2 receptor expressed in HEK293 cells assessed as […] cAMP accumulation after 30 mins by HTRF assay; type: functional, cell-based
[2] = target: Cannabinoid receptor 1 (Homo sapiens, UniProt P21554); assay: Inverse agonist activity at human CB1 receptor expressed in HEK293 cells assessed as inhibition of forskolin-induced cAMP accumulation after 30 mins by HTRF assay; type: functional, cell-based
[3] = Metabolic stability in human liver microsomes assessed as parent compound remaining at 1 uM after 10 mins in presence of NADPH; type: ADME, microsome; conditions: read-out: Stability
[4] = Metabolic stability in rat liver microsomes assessed as parent compound remaining at 1 uM after 10 mins in presence of NADPH; type: ADME, microsome; conditions: read-out: Stability
[5] = Metabolic stability in mouse liver microsomes assessed as parent compound remaining at 1 uM after 10 mins in presence of NADPH; type: ADME, microsome; conditions: read-out: Stability
[6] = target: T1, Cytochrome P450 1A2 (Homo sapiens, UniProt P05177); assay: Inhibition of CYP1A2 in human liver microsomes using phenacetin as substrate after 10 to 30 mins by LC/MS analysis; type: ADME
T1 sequence (P05177 whole entry): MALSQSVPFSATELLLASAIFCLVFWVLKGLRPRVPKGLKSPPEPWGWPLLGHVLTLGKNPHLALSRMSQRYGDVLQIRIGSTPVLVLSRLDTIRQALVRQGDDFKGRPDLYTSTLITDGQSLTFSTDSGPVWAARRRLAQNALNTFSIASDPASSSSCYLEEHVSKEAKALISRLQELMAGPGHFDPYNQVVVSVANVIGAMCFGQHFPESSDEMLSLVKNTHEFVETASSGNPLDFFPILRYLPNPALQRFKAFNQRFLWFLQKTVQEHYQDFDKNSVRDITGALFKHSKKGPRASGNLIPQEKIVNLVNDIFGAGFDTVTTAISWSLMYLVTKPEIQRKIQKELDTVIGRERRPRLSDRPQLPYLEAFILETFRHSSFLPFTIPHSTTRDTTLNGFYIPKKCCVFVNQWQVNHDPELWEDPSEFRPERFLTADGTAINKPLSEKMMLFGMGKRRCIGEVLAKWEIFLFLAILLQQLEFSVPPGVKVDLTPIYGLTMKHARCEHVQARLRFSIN

[7] = target: Cytochrome P450 3A4 (Homo sapiens, UniProt P08684); assay: Inhibition of CYP3A4 in human liver microsomes using midazolam/testosterone as substrate after 10 to 30 mins by LC/MS analysis; type: ADME
[8] = target: Cytochrome P450 2C9 (Homo sapiens, UniProt P11712); assay: Inhibition of CYP2C9 in human liver microsomes using tolbutamide as substrate after 10 to 30 mins by LC/MS analysis; type: ADME
[9] = target: Cytochrome P450 2D6 (Homo sapiens, UniProt P10635); assay: Inhibition of CYP2D6 in human liver microsomes using dextromethorphan as substrate after 10 to 30 mins by LC/MS analysis; type: ADME
[10] = target: Cytochrome P450 2C19 (Homo sapiens, UniProt P33261); assay: Inhibition of CYP2C19 in human liver microsomes using (S)-mephenytoin as substrate after 10 to 30 mins by LC/MS analysis; type: ADME
[11] = Drug uptake in C57BL/6J mouse plasma at 20 mg/kg, po measured after 1 hr; type: ADME, organism-based
[12] = Drug uptake in C57BL/6J mouse plasma at 20 mg/kg, po measured after 4 hrs; type: ADME, organism-based
[13] = Drug uptake in C57BL/6J mouse brain at 20 mg/kg, po measured after 1 hr; type: ADME, organism-based; conditions: in vivo, BLD = below limit of detection
[14] = Drug uptake in C57BL/6J mouse brain at 20 mg/kg, po measured after 4 hrs; type: ADME, organism-based; conditions: in vivo
[15] = Ratio of drug level in C57BL/6J mouse brain to plasma at 20 mg/kg, po measured after 4 hrs; type: ADME, organism-based; conditions: read-out: BPR
[16] = Drug uptake in plasma of diet-induced obese C57BL/6J mouse model at 10 mg/kg administered as daily dose measured at 2 hrs post last dose on day 5; type: ADME, organism-based
[17] = Drug uptake in brain of diet-induced obese C57BL/6J mouse model at 10 mg/kg administered as daily dose measured at 2 hrs post last dose on day 5; type: ADME, organism-based; conditions: in vivo
[18] = Ratio of drug level in brain to plasma of diet-induced obese C57BL/6J mouse model at 10 mg/kg administered as daily dose measured at 2 hrs post last dose on day 5; type: ADME, organism-based; conditions: read-out: BPR
[19] = test system: Mus musculus; assay: Antiobesity activity in diet induced obese C57BL/6J mouse model assessed as decrease in food intake at 10 mg/kg administered as daily dose measured every day for 5 days; type: functional, organism-based
[20] = test system: Mus musculus; assay: Antiobesity activity in diet induced obese C57BL/6J mouse model assessed as decrease in body weight at 10 mg/kg administered as daily dose measured every day for 5 days; type: functional, organism-based
[21] = test system: Mus musculus; assay: In vivo receptor occupancy at CB1 receptor in brain of diet induced obese C57BL/6J mouse model at 10 mg/kg, po administered as daily dose for 5 days measured 10 mins post last dose in presence of [3H]-CP-55940 relative to control; type: functional

Cannabinoid receptor 1, sequence (P21554 whole entry): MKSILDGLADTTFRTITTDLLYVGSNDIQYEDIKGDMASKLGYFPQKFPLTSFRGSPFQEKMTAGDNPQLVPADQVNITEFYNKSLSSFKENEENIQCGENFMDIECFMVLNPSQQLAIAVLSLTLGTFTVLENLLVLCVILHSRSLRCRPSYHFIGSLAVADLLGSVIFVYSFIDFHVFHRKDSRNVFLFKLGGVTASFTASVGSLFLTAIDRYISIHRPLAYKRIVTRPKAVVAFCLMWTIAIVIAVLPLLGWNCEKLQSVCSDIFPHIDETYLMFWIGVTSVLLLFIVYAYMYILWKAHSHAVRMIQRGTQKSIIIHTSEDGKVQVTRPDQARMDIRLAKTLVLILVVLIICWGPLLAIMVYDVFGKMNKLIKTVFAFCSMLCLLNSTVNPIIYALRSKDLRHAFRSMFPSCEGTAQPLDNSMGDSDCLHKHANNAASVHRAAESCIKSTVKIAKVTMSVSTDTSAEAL
Cannabinoid receptor 2, sequence (P34972 whole entry): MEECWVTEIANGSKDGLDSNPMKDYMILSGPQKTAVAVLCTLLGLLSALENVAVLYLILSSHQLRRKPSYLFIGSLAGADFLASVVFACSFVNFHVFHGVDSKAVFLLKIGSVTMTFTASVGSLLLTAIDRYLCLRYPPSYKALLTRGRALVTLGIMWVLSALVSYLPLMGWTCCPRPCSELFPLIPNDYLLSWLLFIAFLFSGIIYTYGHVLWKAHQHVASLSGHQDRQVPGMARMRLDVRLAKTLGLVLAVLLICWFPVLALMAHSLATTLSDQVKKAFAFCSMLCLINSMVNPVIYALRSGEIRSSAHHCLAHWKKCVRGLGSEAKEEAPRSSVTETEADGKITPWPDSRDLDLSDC
Cytochrome P450 3A4, sequence (P08684 whole entry): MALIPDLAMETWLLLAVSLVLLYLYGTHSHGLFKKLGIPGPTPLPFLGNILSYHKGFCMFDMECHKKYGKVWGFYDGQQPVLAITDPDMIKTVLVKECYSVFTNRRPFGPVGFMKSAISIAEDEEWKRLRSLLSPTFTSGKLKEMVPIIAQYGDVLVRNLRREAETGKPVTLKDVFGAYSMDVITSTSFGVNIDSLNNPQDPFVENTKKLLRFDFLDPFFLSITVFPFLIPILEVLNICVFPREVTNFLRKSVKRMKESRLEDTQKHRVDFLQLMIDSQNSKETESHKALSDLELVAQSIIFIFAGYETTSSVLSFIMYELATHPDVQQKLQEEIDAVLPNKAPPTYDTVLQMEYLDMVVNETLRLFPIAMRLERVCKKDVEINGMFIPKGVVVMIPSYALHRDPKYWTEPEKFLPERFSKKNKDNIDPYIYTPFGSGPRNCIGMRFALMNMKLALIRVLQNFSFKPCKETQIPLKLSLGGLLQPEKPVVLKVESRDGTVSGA
Cytochrome P450 2C9, sequence (P11712 whole entry): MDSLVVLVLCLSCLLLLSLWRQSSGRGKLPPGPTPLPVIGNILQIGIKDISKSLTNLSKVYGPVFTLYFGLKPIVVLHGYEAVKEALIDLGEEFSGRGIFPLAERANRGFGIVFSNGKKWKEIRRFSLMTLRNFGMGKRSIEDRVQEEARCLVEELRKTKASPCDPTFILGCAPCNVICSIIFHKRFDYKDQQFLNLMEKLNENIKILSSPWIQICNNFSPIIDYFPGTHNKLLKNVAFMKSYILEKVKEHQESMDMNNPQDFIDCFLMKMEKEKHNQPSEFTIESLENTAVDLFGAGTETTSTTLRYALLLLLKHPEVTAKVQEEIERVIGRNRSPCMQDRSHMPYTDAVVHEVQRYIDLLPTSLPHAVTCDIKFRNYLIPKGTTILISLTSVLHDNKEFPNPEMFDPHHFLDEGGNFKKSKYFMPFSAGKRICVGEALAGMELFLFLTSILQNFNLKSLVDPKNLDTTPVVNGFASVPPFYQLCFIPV
Cytochrome P450 2C19, sequence (P33261 whole entry): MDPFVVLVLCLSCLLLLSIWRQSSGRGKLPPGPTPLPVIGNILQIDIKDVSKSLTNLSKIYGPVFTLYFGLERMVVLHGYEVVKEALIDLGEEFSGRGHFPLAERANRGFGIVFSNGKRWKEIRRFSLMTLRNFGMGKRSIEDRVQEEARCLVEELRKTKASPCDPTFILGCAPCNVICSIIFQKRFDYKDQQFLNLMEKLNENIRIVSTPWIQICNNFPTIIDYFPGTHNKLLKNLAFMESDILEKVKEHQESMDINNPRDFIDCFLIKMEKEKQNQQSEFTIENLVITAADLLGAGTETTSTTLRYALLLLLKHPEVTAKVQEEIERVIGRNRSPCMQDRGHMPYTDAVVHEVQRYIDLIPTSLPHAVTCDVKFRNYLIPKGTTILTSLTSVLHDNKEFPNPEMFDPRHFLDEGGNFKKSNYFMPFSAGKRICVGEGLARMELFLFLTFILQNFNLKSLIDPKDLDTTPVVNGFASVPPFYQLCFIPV
Cytochrome P450 2D6, sequence (P10635 whole entry): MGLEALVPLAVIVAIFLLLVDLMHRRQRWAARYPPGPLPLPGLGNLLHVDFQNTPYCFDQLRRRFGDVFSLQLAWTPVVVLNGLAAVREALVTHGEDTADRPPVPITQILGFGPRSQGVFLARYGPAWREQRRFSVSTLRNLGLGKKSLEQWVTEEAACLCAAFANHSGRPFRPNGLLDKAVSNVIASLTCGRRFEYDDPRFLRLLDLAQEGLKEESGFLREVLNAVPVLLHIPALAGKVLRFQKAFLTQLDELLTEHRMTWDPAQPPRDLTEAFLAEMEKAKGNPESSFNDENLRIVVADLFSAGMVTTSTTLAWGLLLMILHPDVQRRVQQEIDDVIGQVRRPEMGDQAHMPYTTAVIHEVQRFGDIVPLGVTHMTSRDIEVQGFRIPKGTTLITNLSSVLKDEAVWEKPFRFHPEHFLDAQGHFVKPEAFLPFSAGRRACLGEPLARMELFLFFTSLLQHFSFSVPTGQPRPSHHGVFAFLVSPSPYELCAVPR

Question: With `O=C(O)CCCCCOc1cc(NC2CCN(S(=O)(=O)C(F)(F)F)CC2)c2cc(C(c3ccc(Cl)cc3)c3ccc(Cl)cc3)ccc2n1` as the compound, how does the pEC50 [1] read?
Answer: 7.21

Question: With `O=c1cc(NC2CCN(S(=O)(=O)C(F)(F)F)CC2)c2cc(Cc3ccc(Cl)cc3)ccc2[nH]1` as the compound, how does the pEC50 [2] read?
Answer: 6.59

Question: With `O=c1cc(NC2CCN(S(=O)(=O)C(F)(F)F)CC2)c2cc(C(c3ccc(Cl)cc3)c3nccs3)ccc2[nH]1` (stereo not given) as the compound, how does the remaining at 10 min, 1 µM [3] read?
Answer: 62.2%

Question: What about the remaining at 10 min, 1 µM [4] of the same compound?
Answer: 60.1%

Question: What about the remaining at 10 min, 1 µM [5] of the same compound?
Answer: 47.8%

Question: What about the pIC50 [6] of the same compound?
Answer: < 5.00

Question: What about the pIC50 [7] of the same compound?
Answer: < 5.00

Question: And the pIC50 [8]?
Answer: < 5.00

Question: What about the pIC50 [9] of the same compound?
Answer: < 5.00

Question: And the pIC50 [10]?
Answer: 5.10

Question: With `O=c1cc(/C=C/c2ccccc2)c2cc(C(O)c3ccc(Cl)cc3)ccc2[nH]1` (stereo not given) as the compound, how does the pEC50 [2] read?
Answer: < 5.00

Question: With `O=c1cc(/C=C/c2ccccc2)c2cc(C(c3ccc(Cl)cc3)n3ccnc3)ccc2[nH]1` (stereo not given) as the compound, how does the pEC50 [2] read?
Answer: 6.78

Question: With `O=C(Nc1cc(=O)[nH]c2ccc(C(c3ccc(Cl)cc3)n3ccnc3)cc12)c1ccccc1` (stereo not given) as the compound, how does the pEC50 [2] read?
Answer: < 5.00

Question: With `O=c1cc(/C=C/c2ccc(C(F)(F)F)cc2)c2cc(C(c3ccc(Cl)cc3)c3nccs3)ccc2[nH]1` (stereo not given) as the compound, how does the pIC50 [6] read?
Answer: < 5.00

Question: And the pIC50 [7]?
Answer: < 5.00

Question: What about the pIC50 [8] of the same compound?
Answer: < 5.00

Question: And the pIC50 [9]?
Answer: < 5.00

Question: What about the pIC50 [10] of the same compound?
Answer: < 5.00

Question: With `CCOC(=O)CC(=O)N1CCC(Nc2cc(=O)[nH]c3ccc(C(c4ccc(Cl)cc4)c4ccc(Cl)cc4)cc23)CC1` as the compound, how does the pEC50 [2] read?
Answer: 7.87

Question: Which results are given for `O=c1cc(N[C@@H]2CCN(S(=O)(=O)C(F)(F)F)C2)c2cc(C(c3ccc(Cl)cc3)c3nccs3)ccc2[nH]1` (stereo not given in full)?
Answer: remaining at 10 min, 1 µM [3]: 20.4%; remaining at 10 min, 1 µM [4]: 27.9%; remaining at 10 min, 1 µM [5]: 19.1%

Question: With `COCCOCCOCCOCCOCCOCCOCCOc1cc(NC2CCN(S(=O)(=O)C(F)(F)F)CC2)c2cc(C(c3ccc(Cl)cc3)c3ccc(Cl)cc3)ccc2n1` as the compound, how does the pEC50 [2] read?
Answer: 6.34

Question: What about the pEC50 [1] of the same compound?
Answer: 5.23

Question: With `CS(=O)(=O)N1CCC(Nc2cc(=O)[nH]c3ccc(C(c4ccc(Cl)cc4)c4ccc(Cl)cc4)cc23)CC1` as the compound, how does the pEC50 [1] read?
Answer: < 5.00

Question: With `O=C(O)COc1cc(C(c2ccc(Cl)cc2)c2ccc(Cl)cc2)cc2c(NC3CCN(S(=O)(=O)C(F)(F)F)CC3)ccnc12` as the compound, how does the pEC50 [1] read?
Answer: < 5.00

Question: With `COc1ccc(C(c2ccc(Cl)cc2)c2ccc3[nH]c(=O)cc(NC4CCN(S(=O)(=O)C(F)(F)F)CC4)c3c2)cc1` (stereo not given) as the compound, how does the pEC50 [2] read?
Answer: 8.08

Question: With `O=c1cc(OCc2ccccc2)c2cc(C(c3ccc(Cl)cc3)n3ccnc3)ccc2[nH]1` (stereo not given) as the compound, how does the pEC50 [2] read?
Answer: 5.94

Question: With `O=c1cc(NC2CCN(S(=O)(=O)C(F)(F)F)CC2)c2cc(C(c3ccc(Cl)cc3)n3ccnc3)ccc2[nH]1` (stereo not given) as the compound, how does the pEC50 [2] read?
Answer: 8.30

Question: With `O=S(=O)(N1CCC(Nc2ccnc3c(O)cc(C(c4ccc(Cl)cc4)c4ccc(Cl)cc4)cc23)CC1)C(F)(F)F` as the compound, how does the pEC50 [2] read?
Answer: 6.40

Question: With `COCCCc1cc(C(c2ccc(Cl)cc2)c2ccc(Cl)cc2)cc2c(NC3CCN(S(=O)(=O)C(F)(F)F)CC3)cc(=O)[nH]c12` as the compound, how does the pEC50 [1] read?
Answer: 7.21

Question: With `O=c1cc([C@@H]2C[C@@H]2c2ccccc2)c2cc(C(c3ccc(Cl)cc3)n3ccnc3)ccc2[nH]1` (stereo not given in full) as the compound, how does the pEC50 [2] read?
Answer: 7.18

Question: Which results are given for `O=c1cc(NC2CCN(c3ncccn3)CC2)c2cc(C(c3ccc(Cl)cc3)c3ccc(Cl)cc3)ccc2[nH]1`?
Answer: remaining at 10 min, 1 µM [3]: 43%; remaining at 10 min, 1 µM [4]: 69%; remaining at 10 min, 1 µM [5]: 57%; concentration at 1 h [11]: 4.16 µM; concentration at 4 h [12]: 2890 nM; Drug uptake [13]: Bld; Drug uptake [14]: 0.107 nmol/g; Kp at 4 h [15]: 0.037

Question: With `O=c1cc(Cc2ccc(OC(F)(F)F)cc2)c2cc(C(c3ccc(Cl)cc3)n3ccnc3)ccc2[nH]1` (stereo not given) as the compound, how does the pEC50 [2] read?
Answer: 6.95

Question: With `O=C(O)c1cccc(S(=O)(=O)N2CCC(Nc3cc(=O)[nH]c4ccc(C(c5ccc(Cl)cc5)c5ccc(Cl)cc5)cc34)CC2)c1` as the compound, how does the pEC50 [1] read?
Answer: 5.06

Question: For `Cc1c(C(=O)NN2CCCCC2)nn(-c2ccc(Cl)cc2Cl)c1-c1ccc(Cl)cc1` [RIMONABANT], which concentration at 2 h [16] is on record?
Answer: 1500 nM

Question: And the Drug uptake [17]?
Answer: 1.46 nmol/g

Question: What about the Kp at 2 h [18] of the same compound?
Answer: 0.98

Question: And the Activity [19]?
Answer: Active

Question: What about the Activity [20] of the same compound?
Answer: Active

Question: What about the Occ [21] of the same compound?
Answer: 81.7%

Question: With `O=c1cc(CCc2ccccc2)c2cc(C(c3ccc(Cl)cc3)n3ccnc3)ccc2[nH]1` (stereo not given) as the compound, how does the pEC50 [2] read?
Answer: < 5.00

Question: With `COCCOc1cc(NC2CCN(S(=O)(=O)C(F)(F)F)CC2)c2cc(C(c3ccc(Cl)cc3)c3ccc(Cl)cc3)ccc2n1` as the compound, how does the pEC50 [2] read?
Answer: 7.66
